Earlier results in US5659037A, “Process for preparing chiral tetracyclic dopaminergic compounds” (Abbott Laboratories, priority 1995, dated 1997).

Tests used:
dopamine D1 = settings: Nichols U.S. Pat. No. 5,047,536; WO 93/24462; Brewster et al. (1990)
adenylate cyclase = settings: Knoerzer et al., J. Med. Chem., 37:2453-60 (1994)
[1] = Seeman, Pharmacol. Rev. 32:2:229 (1980)

Row | Compound | dopamine D1 agonist activity (dopamine D1) | also measured
1 | Cc1ccc2c(c1)[C@@H]1c3cc(O)c(O)cc3CC[C@H]1NC2 (relative stereo) [2-methyl derivative] | potent and selective dopamine D1 agonists | 
2 | Oc1cc2c(cc1O)[C@@H]1c3ccccc3CN[C@H]1CC2 (relative stereo) [dihydrexidine, trans-10,11-dihydroxy-5,6,6a,7,8,12b-hexahydrobenzo[a]phenanthridine] | potent and selective dopamine D1 agonists | 
3 | Oc1cc2c(cc1O)[C@@H]1c3ccccc3CN[C@H]1CC2 [6aS,12bR-(-)-isomer] |  | activity in an adenylate cyclase assay (adenylate cyclase): inactive
4 | NC1CCc2cc(O)c(O)cc2C1 (stereo not shown) [ADTN, 2-amino-6,7-dihydroxy-1,2,3,4-tetrahydronaphthalene] |  | dopamine agonist activity [1]: greatest activity in its chiral (R)-(+)-isomeric form
